Literature values as cited in patent US20230097323A1, “Method and Devices for Transdermal Delivery of Hydrogen Gas for Therapeutic Purposes” (Hyderm Innovations LLC, priority 2021, published 2023).

How the values were obtained:
[1] = transdermal supply, bag fitted snugly to the skin
[2] = at ambient temperature

For [HH] [hydrogen, Molecular hydrogen], the “time until hydrogen concentration in the skin reaches a plateau” value [1] is given as 40 to 60 min and the “solubility of hydrogen in water” value [2] is given as “about 1.6 mg/l”.
